According to patent US5260327A, “Methods for inhibiting the proliferation of brain and hepatic metastases by using lonidamine” (priority 1992, dated 1993):
“Also recorded” adds a separate entry of the source.

How the values were obtained:
[1] = tested on: repair of radiation-induced potentially lethal damage (PLD); conditions: cited from earlier work
[2] = cited from earlier work
Meth-A fibrosarcoma [3] = test: In vivo trimodality therapy versus single and bimodality therapy, tumor growth delay; design: species or system mice; conditions: lonidamine 50 mg/kg/day
Description: (§1) The effect of trimodality therapy has been examined in HeLa monolayer cell cultures and in the transplanted Meth-A fibrosarcoma. The studies in HeLa cell cultures used a single radiation fraction, and prompt subculture for clonal analysis, conditions which would reduce any heat or drug-induced effect on potential lethal damage. […] In vivo comparative assessment of trimodality therapy versus single and bimodality combination was made in the oxic Meth-A fibrosarcoma. The trimodality regimen consisted of lonidamine (50 mg/kg/day chronically throughout the period of observation), plus radiation therapy (6 Gy×5), and hyperthermia (41.2° C.×65 min pre radiation therapy on days 1 and 4 of therapy); the results are presented in FIG. 14.

[4] = tested on: oxidative and glycolytic metabolism of mammalian cells; conditions: cited from earlier work
[5] = tested on: cell culture and murine tumor systems; conditions: cited from earlier work
spermatogenesis = conditions: in vivo; cited from earlier work
brain metastases = conditions: cited from earlier work
[6] = tested on: Stage 2-4 head and neck cancer; conditions: cited from earlier work
hepatic metastases = test: Phase I study of lonidamine + radiation therapy in patients with hepatic metastases; format: in vivo, human (patients)
Protocol: Lonidamine has received extensive clinical assessment both as a single agent and in combination with radiation therapy. […] In this dosage peak plasma levels of 5 to 15 μg/ml are attained; this is within the range that enhances the effect of radiation and hyperthermia in model systems (24-26, 30, 37 and 38). Two combined lonidamine+radiation therapy studies have been conducted in patients with extensive hepatic or brain metastases, respectively. […] The study in patients with brain metastases employed a randomized comparative design. Fifty eight patients were enrolled; 31 received lonidamine plus whole brain radiation therapy (WBRT) 300 cGy×10; 27 received WBRT alone.

[7] = tested on: multicellular HeLa spheroids; test: Radio-enhancement in multicellular tumor spheroids (growth delay); format: cell-based, human
Description: Based on these studies, and on supportive studies in mice receiving the drug chronically,Kim et al. proposed that optimal use of lonidamine would be to employ it both during and, in a prolonged exposure, after the course of radiation therapy.
The drug's radio-enhancing effects in multicellular tumor spheroids (MTS) was examined assessing growth delay following radiation with and without the drug.

HeLa cells = test: Trimodality therapy in HeLa monolayer cell cultures; format: cell-based, human
Description: Lonidamine was present only during heating.
as §1

Meth-A fibrosarcoma [8] = test: In vivo therapy with lonidamine, radiation and hyperthermia, tumor control; design: species or system BALB/cBy mice
Protocol: Localized radiation and hyperthermia was performed on BALB/cBy mice when tumors were 0.7+/-0.1 cucm and tumor analysis endpoints have been previously described. (26) Tumor control was defined as non-palpable tumor at 60 days. Waterbath temperatures were 41.7° C./65 minutes and […]/65 minutes×2 fractions. […] (Bailey, 26 g thermocouple) below circulated water bath temperatures. Separation between the two hyperthermia treatments was 72 hours.
Lonidamine administration at hour pre-radiation and immediately hyperthermia and was based on serum pharmacokinetic and radiation studies (25). Animals were primed at 100 mg/kg. s.c., 3 days pre-radiation or hyperthermia. At the initiation of radiation or hyperthermia, animals were inoculated 50 mg/kg i.p. 1 hour before treatment and 50 mg/kg s.c. at 48 hours post treatment. Animals were maintained (100 mg/kg) during fractionation and post treatment until recurrence to initial volumes.

[9] = tested on: poly-ADP ribose synthetase; conditions: cited from earlier work
cell culture models = test: Radiation enhancement by nicotinamide in cell culture; format: cell-based
Description: (22) See FIGS. 9 and 10. As noted previously, the following DMF's were obtained for the respective experimental conditions: Nicotinamide+Radiation Therapy=1.36, Hyperthermia+Radiation Therapy=1.36, Nicotinamide+Hyperthermia+Radiation Therapy=1.64.

[10] = tested on: C3H mammary adenocarcinoma; conditions: transplanted C3H mammary adenocarcinoma; cited from earlier work
[11] = Tolerability of nicotinamide in mice; conditions: optimal dose of 0.5 gm/kg (1.5 gm/m^2)
[12] = in vivo; cited from earlier work
[13] = tested on: EMT-6, Lewis Lung, and RIF-1 tumors; conditions: injection prior to radiation treatment; cited from earlier work
MCA mammary carcinoma = test: Radiation enhancement in the transplanted MCA mammary carcinoma, with or without mild hyperthermia; format: in vivo, murine
Protocol: Nicotinamide was administered intraperitoneal one (1) […] before irradiation. Localized mild hyperthermia (41° C.) was applied for one (1) hour immediately prior to irradiation.

Meth-A fibrosarcoma [14] = test: Radiation enhancement by nicotinamide in Meth-A fibrosarcoma; format: in vivo, murine; conditions: radiosensitive tumor
Description: The mechanism by which nicotinamide produces radiation enhancement is not established.

[15] = single large daily dosage just prior to radiation

O=C(O)c1nn(Cc2ccc(Cl)cc2Cl)c2ccccc12 [lonidamine]
inhibition of repair of radiation-induced potentially lethal damage [1]: inhibitor of repair of radiation-induced potentially lethal damage; also recorded: established inhibitor of repair of potential lethal damage | peak plasma levels ([2]; 150 mg t.i.d.): 5 to 15 µg/mL | tolerability ([2]; 150 mg t.i.d.): well tolerated by most patients | dose-limiting side effect ([2]; clinical): skeletal muscle discomfort | day of tumor regrowth, trimodality therapy (Meth-A fibrosarcoma [3]; 6 Gy×5, 41.2° C.×65 min, regrowth not yet evident (radiation+hyperthermia: day 18)): > 32 days | tumor growth inhibition, radiation therapy+lonidamine, until day (Meth-A fibrosarcoma [3]; radiation 6 Gy×5 (radiation alone: day 11)): 13 days | tumor regression, trimodality therapy (Meth-A fibrosarcoma [3]; radiation 6 Gy×5, hyperthermia 41.2° C.×65 min days 1 and 4): tumor regression to the point of non-palpability | effects on oxidative and glycolytic metabolism [4]: inhibitory effects on both oxidative and glycolytic metabolism of mammalian cells; also recorded: perturb energy metabolism in neoplastic cells | pH dependence of hyperthermia enhancing effects ([5]; acidification of cell culture medium): greatly increased by acidification of the cell culture medium; also recorded: increased in cells under conditions of reduced extracellular pH | radiation and hyperthermia enhancement [5]: radiation and hyperthermia enhancing agent in cell culture and murine tumor systems; also recorded: enhanced cytotoxic effects in cells treated either with radiation or hyperthermia | inhibition of spermatogenesis (spermatogenesis): potent inhibitor of spermatogenesis in mammals | response or survival, lonidamine + WBRT vs WBRT alone (brain metastases; WBRT 300 cGy×10): no significant difference in response or survival | patients with peak plasma levels ≥15 μg/ml, WBRT study (brain metastases; [15]): 15 of 30 | disease free survival at 2 years (all patients) ([6]; Radiation Therapy+Lonidamine 150 mg t.i.d. (placebo arm: 25%)): 51% | complete response rate ([6]; Radiation Therapy+Lonidamine 150 mg t.i.d. (placebo arm: 58%)): 69% | remission duration ([6]; Radiation Therapy+Lonidamine 150 mg t.i.d. vs placebo arm): longer in the lonidamine treated arm | disease free survival rate versus radiation therapy ([6]; lonidamine + radiation therapy, placebo-controlled randomized study): significantly increased the disease free survival rate | objective tumor regression (hepatic metastases; lonidamine + radiation therapy 250 to 500 cGy ×5): five of fifteen | patients with peak plasma levels ≥15 μg/ml, hepatic study (hepatic metastases; [15]): 11 of 17 | patient tolerance of the combination (hepatic metastases; single large daily lonidamine dosage + radiation therapy): acceptable patient tolerance | spheroid regrowth on lonidamine removal ([7]; lonidamine removed 5 days following the last radiation exposure): begins to grow again when lonidamine is removed | effect of fractionation of radiation dose on lonidamine effect ([7]; multicellular HeLa spheroids, with radiation): increased by fractionation of the radiation dose; also recorded: increased with increasing dose fractionation | cytotoxic effect on HeLa cells (HeLa cells; 37° C.): no cytotoxic effect on HeLa cells at 37 °C | trimodality therapy vs radiation alone or bimodality therapy (HeLa cells; radiation therapy+lonidamine+mild hyperthermia (41.5° C.), single radiation fraction): clearly superior to radiation alone, or bimodality therapy | tumor response, lonidamine+hyperthermia vs hyperthermia alone and radiation+lonidamine vs radiation alone (Meth-A fibrosarcoma [8]; 41.2° C. or 41.7° C., fractionated): No differences were observed | tumor response, lonidamine in adjuvant capacity (Meth-A fibrosarcoma [8]; adjuvant): Marginal differences in tumor response | tri-modality therapy vs single or bi-modality treatments (Meth-A fibrosarcoma [8]; mouse, in vivo): consistently greater effect when compared to single or bi-modality treatments | tumor control, tri-modality therapy (radiation+hyperthermia+lonidamine) (Meth-A fibrosarcoma [8]; non-palpable tumor at 60 days, 41.2° C. or 41.7° C.): 50-56% | tri-modality therapy vs radiation+hyperthermia at 41.2° C. (Meth-A fibrosarcoma [8]; tumor control): more effective than the tumor control for radiation+hyperthermia at 41.2 °C

NC(=O)c1cccnc1 [nicotinamide]
inhibition of poly-ADP ribose synthetase [9]: inhibitor of poly-ADP ribose synthetase | activity in cell culture models (cell culture models; in our hands): not active in cell culture models | radiation enhancement in cell culture (cell culture models; nicotinamide concentrations <10 mM): No radiation enhancement | radiation enhancing effects [10]: radiation enhancing effects | toxicity in mice [11]: non-toxic in mice | safety in humans [12]: safe and associated with only a low incidence of side effects | optimal timing of drug for radiation enhancement [13]: 1 to 3 h | radiation dose modification factor, nicotinamide + hyperthermia + radiation (MCA mammary carcinoma; 0.5 gm/kg 1 hour prior to radiation, 41° C. for one hour, b79 statement): 1.77 | DMF, Nicotinamide+Hyperthermia+Radiation Therapy (MCA mammary carcinoma; 125 to 500 mg/kg i.p. one hour prior to irradiation, 1 hour heating at 41° C., b86 statement): 1.64 | DMF, Nicotinamide+Radiation Therapy (MCA mammary carcinoma; 125 to 500 mg/kg i.p. one hour prior to irradiation, b86 statement): 1.36 | enhancement of effects of radiation and radiation plus hyperthermia (MCA mammary carcinoma; 125 to 500 mg/kg i.p., one hour prior to irradiation, 41° C. 1 hour): clear enhancement of the effects of radiation and radiation plus hyperthermia | DMF, nicotinamide plus radiation (without hyperthermia) (MCA mammary carcinoma; without hyperthermia, b79 statement): 1.35 | radiation enhancement in oxic Meth-A fibrosarcoma (Meth-A fibrosarcoma [14]): inactive against the oxic Meth-A fibrosarcoma model; also recorded: no radio-enhancing effect
